This note sets out measurements from PMC7522027 (Disease Models & Mechanisms, 2020).

In assay [1] the test system is BMP6-induced SMAD1/5 phosphorylation. Nature of the assay: BMP6-induced SMAD1/5 phosphorylation in HepG2 cells (immunoblot). In kind it is cell-based, human. To be noted: HepG2, BMP6 50 ng/ml; higher concentrations. On the procedure:
(§1) For BMP stimulation, the HepG2 cells (∼50% confluency) were starved on serum-free medium for 6 h. Subsequently, prior to the addition of BMP ligands, the cells were treated with compound for 30 min. Next, the cells were stimulated with BMP2 (50 ng/ml) or BMP6 (50 ng/ml) for 45 min. The cells were then washed with PBS and lysed in Laemmli sample buffer for western blot analysis.
(§2) HepG2 or HEK 293T cells were lysed in Laemmli sample buffer. Proteins were separated by sodium dodecyl sulfate polyacrylamide gel electrophoresis (SDS-PAGE) and transferred onto […] polyvinylidene difluoride (PVDF) membrane (IPVH00010, Merck Millipore). Membranes were blocked using 5% non-fat dry milk in Tris-buffered saline with 0.1% Tween 20 (655204, Merck Millipore) and probed with the respective primary and secondary antibodies. The signal was detected using Clarity™ Western ECL Substrate (1705060, Bio-Rad) and ChemiDoc Imaging System (17001402, Bio-Rad). The antibodies used for immunoblotting were raised against the following proteins: phospho-SMAD1/5/8 ([Persson et al., 1998]; 1:1000), SMAD1 (Cell Signaling Technology, #6944; 1:1000), GAPDH (Merck Millipore, #G8795; 1:5000) and hemagglutinin (HA; Roche, #12CA5; 1:1000).
For orientation: A western blot detects proteins with antibodies after separation by electrophoresis.

Assay [2] has as its target T1, caALK1 (Homo sapiens, UniProt P37023, Q201D).
T1 construct: expressed in transfected cells; host or cells: HEK 293T
Nature of the assay: caALK1-induced SMAD1/5 phosphorylation in HEK 293T cells. In kind it is cell-based. To be noted: cercosporamide 1-10 µM, LDN193189 200 nM.
Description: as §2
(§3) For experiments with the caALK type I receptor constructs, HEK 293T cells were seeded in 24-well plates at ∼90% confluency and transfected with the DNA expression constructs in the presence of PEI. Thirty hours after transfection, the cells were added to serum-starved medium and treated with compounds for 16 h (overnight). Subsequently, the cells were washed with PBS and lysed in Laemmli sample buffer. […]

For assay [3], the target named is T2, anaplastic lymphoma kinase (ALK wt, GST-HIS-tag) (Homo sapiens, UniProt Q9UM73).
T2 construct: GST; His; purchased ProQinase GmbH (Freiburg, Germany); host or cells: bacteria (so in the source)
T2 sequence (Q9UM73 19-1620): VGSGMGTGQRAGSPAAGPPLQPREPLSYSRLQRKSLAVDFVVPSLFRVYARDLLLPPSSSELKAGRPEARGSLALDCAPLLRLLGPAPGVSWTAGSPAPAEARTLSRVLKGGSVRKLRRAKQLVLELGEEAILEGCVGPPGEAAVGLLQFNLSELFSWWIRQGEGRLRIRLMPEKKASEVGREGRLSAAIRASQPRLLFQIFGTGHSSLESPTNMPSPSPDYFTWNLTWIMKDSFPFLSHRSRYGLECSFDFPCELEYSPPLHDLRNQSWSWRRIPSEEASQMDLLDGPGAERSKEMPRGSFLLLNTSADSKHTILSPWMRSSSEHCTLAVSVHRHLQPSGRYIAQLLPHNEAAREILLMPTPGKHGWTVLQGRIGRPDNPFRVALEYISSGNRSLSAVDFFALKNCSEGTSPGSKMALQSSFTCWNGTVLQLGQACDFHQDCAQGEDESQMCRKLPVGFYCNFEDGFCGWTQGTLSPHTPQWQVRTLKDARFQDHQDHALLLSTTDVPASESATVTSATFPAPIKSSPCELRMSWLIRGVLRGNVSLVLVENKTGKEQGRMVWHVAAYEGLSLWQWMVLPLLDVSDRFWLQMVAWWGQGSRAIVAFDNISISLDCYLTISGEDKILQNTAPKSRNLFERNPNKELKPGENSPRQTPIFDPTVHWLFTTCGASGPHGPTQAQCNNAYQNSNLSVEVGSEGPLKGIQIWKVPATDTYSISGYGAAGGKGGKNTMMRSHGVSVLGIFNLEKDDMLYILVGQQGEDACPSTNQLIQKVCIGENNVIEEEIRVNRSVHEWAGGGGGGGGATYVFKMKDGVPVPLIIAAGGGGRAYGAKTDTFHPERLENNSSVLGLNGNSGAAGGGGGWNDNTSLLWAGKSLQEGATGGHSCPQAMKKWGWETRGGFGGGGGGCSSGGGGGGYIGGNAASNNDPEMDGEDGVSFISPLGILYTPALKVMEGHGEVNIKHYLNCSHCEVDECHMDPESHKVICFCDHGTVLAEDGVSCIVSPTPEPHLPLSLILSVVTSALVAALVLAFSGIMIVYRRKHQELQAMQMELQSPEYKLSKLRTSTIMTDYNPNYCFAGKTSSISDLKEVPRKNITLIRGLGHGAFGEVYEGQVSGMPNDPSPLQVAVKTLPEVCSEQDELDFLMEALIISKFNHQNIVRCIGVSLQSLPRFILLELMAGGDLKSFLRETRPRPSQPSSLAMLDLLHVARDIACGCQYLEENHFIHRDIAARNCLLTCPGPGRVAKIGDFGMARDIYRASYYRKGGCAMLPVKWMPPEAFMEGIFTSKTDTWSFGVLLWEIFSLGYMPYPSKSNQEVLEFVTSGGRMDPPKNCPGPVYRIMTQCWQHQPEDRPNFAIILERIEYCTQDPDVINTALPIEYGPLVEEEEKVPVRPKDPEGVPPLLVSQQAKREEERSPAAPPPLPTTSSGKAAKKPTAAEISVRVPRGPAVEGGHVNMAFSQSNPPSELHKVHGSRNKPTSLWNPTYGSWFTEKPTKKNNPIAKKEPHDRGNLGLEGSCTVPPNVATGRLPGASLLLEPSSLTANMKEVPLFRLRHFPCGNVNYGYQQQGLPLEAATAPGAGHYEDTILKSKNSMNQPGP
As to the kind of experiment: radiometric protein kinase assay, anaplastic lymphoma kinase. Format: biochemical. To be noted: Fig. 7A.
Description: (§4) IC50 values were calculated using Prism 5.04 for Windows (GraphPad, San Diego, CA, USA; www.graphpad.com). The mathematical model used was ‘Sigmoidal response (variable slope)’ with parameters ‘top’ fixed at 100% and ‘bottom’ at 0%. The fitting method used was a least-squares fit.

Assay [4] concerns caALK6. Nature of the assay: caALK6-induced SMAD1/5 phosphorylation in HEK 293T cells. Format: cell-based, human. To be noted: cercosporamide 1-10 µM, LDN193189 200 nM.
Description: as §2, §3

The target in assay [5] is T3, BMPR1B (ALK6) (Homo sapiens, UniProt O00238).
T3 construct: purchased ProQinase GmbH (Freiburg, Germany); host or cells: bacteria (so in the source)
T3 sequence (O00238 14-502): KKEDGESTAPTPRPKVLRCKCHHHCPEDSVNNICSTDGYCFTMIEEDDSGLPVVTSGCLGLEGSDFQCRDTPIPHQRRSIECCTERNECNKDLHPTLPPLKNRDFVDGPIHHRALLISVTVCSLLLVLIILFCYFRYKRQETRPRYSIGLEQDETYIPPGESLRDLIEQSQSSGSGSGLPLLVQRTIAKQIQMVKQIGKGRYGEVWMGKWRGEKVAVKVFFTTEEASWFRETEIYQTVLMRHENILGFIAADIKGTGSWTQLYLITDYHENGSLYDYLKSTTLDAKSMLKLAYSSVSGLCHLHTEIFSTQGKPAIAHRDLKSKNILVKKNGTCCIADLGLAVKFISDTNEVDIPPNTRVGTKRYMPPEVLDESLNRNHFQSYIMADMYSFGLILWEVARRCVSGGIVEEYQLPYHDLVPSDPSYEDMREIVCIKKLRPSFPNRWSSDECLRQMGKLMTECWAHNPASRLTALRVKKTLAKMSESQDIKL
Nature of the assay: radiometric protein kinase assay, ALK6. In kind it is biochemical. To be noted: [ATP] = 3 μM; Fig. 7G.
Description: as §4

For assay [6], the target named is T4, BMPR1A (ALK3) (Homo sapiens, UniProt P36894).
T4 construct: purchased ProQinase GmbH (Freiburg, Germany); host or cells: bacteria (so in the source)
T4 sequence (P36894 24-532): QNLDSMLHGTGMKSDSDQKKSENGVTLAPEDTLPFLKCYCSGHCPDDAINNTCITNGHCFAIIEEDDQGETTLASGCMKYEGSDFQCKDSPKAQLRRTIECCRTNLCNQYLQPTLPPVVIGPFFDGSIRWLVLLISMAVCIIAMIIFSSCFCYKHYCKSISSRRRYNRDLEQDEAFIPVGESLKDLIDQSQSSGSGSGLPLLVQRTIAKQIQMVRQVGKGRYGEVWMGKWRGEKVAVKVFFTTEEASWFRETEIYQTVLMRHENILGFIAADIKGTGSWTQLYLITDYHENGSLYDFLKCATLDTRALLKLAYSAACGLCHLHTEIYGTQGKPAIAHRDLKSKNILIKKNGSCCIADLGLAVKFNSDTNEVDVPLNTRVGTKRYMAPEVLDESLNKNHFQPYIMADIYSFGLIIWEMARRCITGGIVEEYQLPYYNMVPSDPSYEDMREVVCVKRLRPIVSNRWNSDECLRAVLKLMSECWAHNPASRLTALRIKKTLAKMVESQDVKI
Nature of the assay: radiometric protein kinase assay, ALK3. To be noted: [ATP] = 0.3μM; Fig. 7F. Format: biochemical.
Description: as §4

Assay [7] relates to BMP2-induced SMAD1/5 phosphorylation. As to the kind of experiment: BMP2-induced SMAD1/5 phosphorylation in HepG2 cells (immunoblot). Format: cell-based, human. To be noted: HepG2, BMP2 50 ng/ml; high concentrations (range 100 nM to 10 µM). On the procedure:
as §1, §2

Assay [8] deals with T5, MEK (MEK1 wt) (Homo sapiens, UniProt Q02750).
T5 construct: purchased ProQinase GmbH (Freiburg, Germany); host or cells: bacteria (so in the source)
T5 sequence (Q02750 whole entry): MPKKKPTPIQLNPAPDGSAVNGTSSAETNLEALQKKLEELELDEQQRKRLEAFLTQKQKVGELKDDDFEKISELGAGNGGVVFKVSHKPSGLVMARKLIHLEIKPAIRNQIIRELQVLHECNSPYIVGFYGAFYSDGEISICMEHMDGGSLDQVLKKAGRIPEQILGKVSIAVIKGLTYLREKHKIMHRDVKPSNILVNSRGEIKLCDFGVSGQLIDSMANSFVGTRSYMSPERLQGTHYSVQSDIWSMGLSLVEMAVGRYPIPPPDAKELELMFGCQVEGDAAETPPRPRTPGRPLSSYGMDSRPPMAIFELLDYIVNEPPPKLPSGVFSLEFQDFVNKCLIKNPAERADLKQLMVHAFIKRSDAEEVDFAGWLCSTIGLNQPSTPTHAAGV
Nature of the assay: radiometric protein kinase assay, MEK. To be noted: [ATP] = 3 μM; Fig. 7H. Format: biochemical.
Description: as §4

Assay [9] deals with T6, ACV-RL1 (ALK1) (Homo sapiens, UniProt P37023).
T6 construct: purchased ProQinase GmbH (Freiburg, Germany); host or cells: bacteria (so in the source)
T6 sequence (P37023 22-503): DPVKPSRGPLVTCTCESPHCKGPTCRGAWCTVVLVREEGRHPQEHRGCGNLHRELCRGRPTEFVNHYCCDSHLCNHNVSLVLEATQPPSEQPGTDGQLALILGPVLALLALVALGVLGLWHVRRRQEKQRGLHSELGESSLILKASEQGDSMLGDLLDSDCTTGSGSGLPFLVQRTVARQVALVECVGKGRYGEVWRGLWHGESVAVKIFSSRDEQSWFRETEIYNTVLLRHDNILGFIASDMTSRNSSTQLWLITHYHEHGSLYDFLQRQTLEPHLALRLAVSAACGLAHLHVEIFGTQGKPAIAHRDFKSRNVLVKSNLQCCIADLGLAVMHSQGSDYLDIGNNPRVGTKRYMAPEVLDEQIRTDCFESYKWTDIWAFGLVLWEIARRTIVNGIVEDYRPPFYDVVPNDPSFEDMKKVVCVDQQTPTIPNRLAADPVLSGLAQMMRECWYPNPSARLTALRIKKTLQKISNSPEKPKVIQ
As to the kind of experiment: radiometric protein kinase assay, ALK1. Format: biochemical. To be noted: [ATP] = 1 μM; Fig. 7D.
Description: as §4

Assay [10] has as its target T7, caALK5 (Homo sapiens, UniProt P36897, T204D).
T7 construct: expressed in transfected cells; host or cells: HEK 293T
T7 sequence (P36897 34-503 T204D): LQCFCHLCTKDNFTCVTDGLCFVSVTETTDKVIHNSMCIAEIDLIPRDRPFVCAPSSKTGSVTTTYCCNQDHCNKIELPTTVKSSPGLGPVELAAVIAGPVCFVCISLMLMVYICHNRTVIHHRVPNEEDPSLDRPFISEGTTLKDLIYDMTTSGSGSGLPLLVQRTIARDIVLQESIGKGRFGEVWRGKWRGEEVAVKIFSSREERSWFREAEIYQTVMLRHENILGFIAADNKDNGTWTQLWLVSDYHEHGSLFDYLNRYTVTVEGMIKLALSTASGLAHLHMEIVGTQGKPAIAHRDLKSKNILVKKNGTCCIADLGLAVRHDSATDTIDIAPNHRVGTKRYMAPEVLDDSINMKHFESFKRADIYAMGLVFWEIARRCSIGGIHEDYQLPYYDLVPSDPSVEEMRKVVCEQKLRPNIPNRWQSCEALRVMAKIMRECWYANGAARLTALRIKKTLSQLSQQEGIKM
Nature of the assay: caALK5-induced SMAD phosphorylation in HEK 293T cells. To be noted: 1, 5, 10 µM. Format: cell-based.
Description: as §2, §3

For assay [11], the target named is T8, caALK2 (Homo sapiens, UniProt Q04771, Q207D).
T8 construct: expressed in transfected cells; host or cells: HEK 293T
T8 sequence (Q04771 21-509 Q207D): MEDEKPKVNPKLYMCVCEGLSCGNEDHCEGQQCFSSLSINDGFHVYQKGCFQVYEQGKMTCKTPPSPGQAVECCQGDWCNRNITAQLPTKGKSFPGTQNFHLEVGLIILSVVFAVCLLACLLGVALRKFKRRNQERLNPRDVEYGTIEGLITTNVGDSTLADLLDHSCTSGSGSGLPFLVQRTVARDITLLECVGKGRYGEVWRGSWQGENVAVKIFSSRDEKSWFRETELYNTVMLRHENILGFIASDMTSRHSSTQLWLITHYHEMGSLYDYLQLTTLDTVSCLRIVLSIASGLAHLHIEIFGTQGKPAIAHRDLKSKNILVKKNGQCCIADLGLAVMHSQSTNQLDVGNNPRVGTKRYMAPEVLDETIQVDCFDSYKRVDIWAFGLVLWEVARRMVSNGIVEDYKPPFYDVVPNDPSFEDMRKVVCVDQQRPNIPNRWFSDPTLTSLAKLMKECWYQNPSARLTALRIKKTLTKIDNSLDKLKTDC
As to the kind of experiment: caALK2-induced SMAD1/5 phosphorylation in HEK 293T cells. In kind it is cell-based. To be noted: cercosporamide 1-10 µM, LDN193189 200 nM.
Description: as §2, §3

Entries after “also recorded” stand apart in the source; their conditions may differ.

T1 sequence (P37023 22-503 Q201D): as the sequence (P37023 22-503) above, with Q180D counted along it

One may read the IC50 as the midpoint of a concentration-inhibition curve. For `CC(=O)C1=C(O)C=C2Oc3c(C(N)=O)c(O)cc(O)c3[C@]2(C)C1=O` [cercosporamide, Cercosporamide], the “effect on BMP6-induced SMAD1/5 phosphorylation” value in assay [1] is given as “only minor inhibition”. Also, the “effect on caALK1-induced SMAD1/5 phosphorylation” value in assay [2] is reported as “inhibited SMAD1/5 phosphorylation”. Also, the concentration for half-maximal inhibition (IC50) in [3] turned out to be 10000 nM; in [5], 0.39 µM; in [6], 0.36 µM; in assay [8], 4.1 µM; in assay [9] it was 3.3 µM. In addition, the “effect on caALK6-induced SMAD1/5 phosphorylation” value in assay [4] is reported as “inhibited SMAD1/5 phosphorylation”. The “effect on BMP2-induced SMAD1/5 phosphorylation” value in assay [7] is reported as “capable of blocking SMAD1/5 phosphorylation”. Moreover, the “effect on caALK5-induced SMAD1/5 phosphorylation” value in [10] is “not inhibited; also recorded: only weakly inhibited”. The “effect on caALK2-induced SMAD1/5 phosphorylation” value in assay [11] is on record as “inhibited SMAD1/5 phosphorylation”.
